Consider 13 compounds from US4918083A, “4,5 Dihydroimidazole compounds which have useful pharmaceutical utility” (Beecham Group p.l.c., priority 1986, dated 1990).

pKi: −log10 of the molar value. Structures can show the parent of a compound that is named as a salt. Where two headings read alike, the source gives them in different places.

One test concerns the target T1, α2 -Adrenoceptor (Homo sapiens, UniProt P08913).
T1 construct: Human platelet membranes; from tissue; host or cells: human platelet membranes
T1 sequence (P08913 1-465): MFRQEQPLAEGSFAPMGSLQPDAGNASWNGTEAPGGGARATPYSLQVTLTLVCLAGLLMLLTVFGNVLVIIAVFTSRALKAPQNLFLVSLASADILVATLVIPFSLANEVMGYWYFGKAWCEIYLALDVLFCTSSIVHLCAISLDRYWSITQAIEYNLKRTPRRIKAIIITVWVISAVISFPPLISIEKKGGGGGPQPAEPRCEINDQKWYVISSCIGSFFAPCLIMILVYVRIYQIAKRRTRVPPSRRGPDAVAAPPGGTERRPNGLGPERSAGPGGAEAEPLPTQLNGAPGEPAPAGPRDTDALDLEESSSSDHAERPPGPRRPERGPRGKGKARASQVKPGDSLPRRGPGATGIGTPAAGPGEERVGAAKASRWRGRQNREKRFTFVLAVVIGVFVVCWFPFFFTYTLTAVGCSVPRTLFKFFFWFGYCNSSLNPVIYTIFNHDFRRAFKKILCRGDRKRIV
Briefly: α2-Adrenoceptor Binding ([3H] Rauwolscine, human platelet membranes). The method, then:
(B) α2 -Adrenoceptor Binding
Human platelet membranes were incubated with [^3 H] Rauwolscine (0.5-1.0 nM) for 30 minutes at 30° C. with varying concentrates of the drug (0.1-10,000 nM). The binding assay was stopped by filtering and rinsing on GF/B glass fibre filters.

In the next test the test system is blood glucose. Briefly: Reversal of Adrenaline-Exacerbated Glucose Intolerance in Mice. The test is classed as in vivo, CFLP female mice. Particulars: Mus musculus, 2 h, oral gavage, glucose 1 g/kg and adrenaline 300 μg/kg s.c. 30 min later, 0-120 min, vs water dosed control, read-out: % Reduction in area under Blood Glucose curve; for inhibition in vivo at 20 µmol/kg: 20 μmol/kg. Here is the method:
(A) Reversal of Adrenaline-Exacerbated Glucose Intolerance in Mice
CFLP female mice of about 25 g were fasted for 24 hours prior to receiving water (10 ml/kg) or compounds by oral gavage. Thirty minutes later, glucose (1 g/kg) and adrenaline (300 μg/kg) were injected subcutaneously. Blood samples for glucose analysis were taken serially from the tail of each mouse at 0, 30, 60 90 and 120 minutes after dosing glucose and the results are expressed below as the percentage reduction in the area under the blood glucose curve; the compound treated groups being compared to the water dosed control group. Six mice were used in each treatment group.

Setting [1] is: human platelet membranes, [3H] Rauwolscine 0.5-1.0 nM, 30 minutes at 30° C., read-out: Binding Affinity Ki.

In general, pKi refers to −log10 of the Ki, conventionally taken in molar units. Turning to `CC(C)C1c2ccccc2CN1CC1=NCCN1` (stereo not drawn) [Example 10, 2-(2H-[1-(1-Methylethyl)-1,3-dihydroisoindole]methyl)-4,5-dihydroimidazole dihydrochloride hemihydrate], the negative logarithm of the Ki (pKi) at α2 -Adrenoceptor (setting [1]) was 7.47. For the compound `CCC1c2ccccc2CN1CC1=NCCN1` (stereo not drawn) [Example 2, 2-[2H-(1-Ethyl-1,3-dihydroisoindole)methyl]-4,5-dihydroimidazole dihydrochloride], the inhibition in vivo at 20 µmol/kg in the test with blood glucose was 27%. The pKi on α2 -Adrenoceptor (setting [1]) is 8.39. On the same counts, the results for `c1ccc(C2c3ccccc3CN2CC2=NCCN2)cc1` (stereo not drawn) [Example 9, 2-[2H-(1-Phenyl-1,3-dihydroisoindole)methyl]-4,5-dihydroimidazole] are 31% and 8.16. Regarding `CC1c2ccc(F)cc2CN1CC1=NCCN1` (stereo not drawn) [Example 5, 2[2H-(5-Fluoro-1-methyl-1,3-dihydroisoindole)methyl]-4,5-dihydroimidazole], in the test with blood glucose (5 μmol/kg), the inhibition in vivo at 5 µmol/kg stood at 20%. Also, on α2 -Adrenoceptor (setting [1]), the pKi is 9.10. In the case of `CC1c2ccc(Cl)cc2CN1CC1=NCCN1` (stereo not drawn) [Example 3, 2-[2H-(5-Chloro-1-methyl-1,3-dihydroisoindole)methyl]-4,5-dihydroimidazole dihydrochloride], the inhibition in vivo at 10 µmol/kg in the test on blood glucose (10 μmol/kg) was 41%. Besides, the pKi on α2 -Adrenoceptor (setting [1]) was 8.47.

With `Clc1cccc(C2c3ccccc3CN2CC2=NCCN2)c1` (stereo not drawn) [Example 7], the inhibition in vivo at 20 µmol/kg in the test on blood glucose is 22%. Further, on α2 -Adrenoceptor (setting [1]), the pKi is 8.74. `COc1ccc(C2c3ccccc3CN2CC2=NCCN2)cc1` (stereo not drawn) [Example 12, 2-[2H-(1-(4-Methoxyphenyl)-1,3-dihydroisoindole)methyl]-4,5-dihydroimidazole]: the inhibition in vivo at 20 µmol/kg in the test with blood glucose amounted to 34%. The negative logarithm of the Ki (pKi) on α2 -Adrenoceptor (setting [1]) is 8.70. As for `c1ccc(CC2c3ccccc3CN2CC2=NCCN2)cc1` (stereo not drawn) [Example 13, 2-[2H-(1-Benzyl-1,3-dihydroisoindole)methyl]-4,5-dihydroimidazole], the inhibition in vivo at 20 µmol/kg with blood glucose was found to be 16%. Moreover, on α2 -Adrenoceptor (setting [1]), the pKi was 7.40.

Consider `CC1c2cc(Cl)ccc2CN1CC1=NCCN1` (stereo not drawn) [Example 4, 2-[2H-(6-Chloro-1-methyl-1,3-dihydroisoindole)methyl]-4,5-dihydroimidazole], for which the inhibition in vivo at 20 µmol/kg in the test on blood glucose worked out at 27%. At α2 -Adrenoceptor (setting [1]), the pKi is 8.19. As for `Clc1ccc(C2c3ccccc3CN2CC2=NCCN2)cc1` (stereo not drawn) [Example 6, 2-[2H-(1-(4-Chlorophenyl)-1,3-dihydroisoindole)methyl]-4,5-dihydroimidazole], the inhibition in vivo at 20 µmol/kg in the test with blood glucose came to 15%. Moreover, the pKi on α2 -Adrenoceptor (setting [1]) is 8.44. For `Cc1ccc(C2c3ccccc3CN2CC2=NCCN2)cc1` (stereo not drawn) [Example 11, 2-[2H-(1-(4-Methylphenyl)-1,3-dihydroisoindole)methyl]-4,5-dihydroimidazole], at α2 -Adrenoceptor (setting [1]), the negative-log Ki (pKi) was 7.60. Regarding `CC1c2ccccc2CN1CC1=NCCN1` (stereo not drawn) [Example 1, 2-[2H-(1-Methyl-1,3-dihydroisoindole)methyl]-4,5-dihydroimidazole], the inhibition in vivo at 20 µmol/kg with blood glucose came out at 34%. The pKi at α2 -Adrenoceptor is 8.77. With `Fc1ccc(C2c3ccccc3CN2CC2=NCCN2)cc1` (stereo not drawn) [Example 8, 2-[2H-(1-(4-Fluorophenyl)-1,3-dihydroisoindole)methyl]-4,5-dihydroimidazole], the inhibition in vivo at 20 µmol/kg in the test on blood glucose came to 21%. In addition, the pKi at α2 -Adrenoceptor (setting [1]) was 8.57.
